Square brackets hold non-standard residues; d marks the D form. Peptide text beside a SMILES is read from it. Bip(2'-Et-4'-OMe) = CCc1cc(OC)ccc1-c1ccc(C[C@H](N)C(=O)O)cc1; αMePhe(2-F) = C[C@](N)(Cc1ccccc1F)C(=O)O; hPhe = N[C@@H](CCc1ccccc1)C(=O)O; Aib = CC(C)(N)C(=O)O

Drawing on PMC8387526, “Small peptide-based GLP-1R ligands: an approach to reduce the kidney uptake of radiolabeled GLP-1R-targeting agents?” (EJNMMI Radiopharmacy and Chemistry, 2021), this text covers EC50 and IC50 for one compound.

Assay [1] concerns the target T1, human GLP-1 receptor (Homo sapiens, UniProt P43220). Further details: Dr. Timothy Kieffer (University of British Columbia); method as in Mapelli et al., 2009; Haque et al., 2010a. Particulars: CHO cells stably overexpressing the human GLP-1 receptor; ref Mapelli et al., 2009; Haque et al., 2010a; read-out: EC50 (cAMP production); cited from earlier work. On the technique in general: Cyclic AMP is a second messenger, typically raised through Gs and lowered through Gi signalling.

Assay [2] has as its target T1, human GLP-1 receptor. Put plainly: Competitive binding (IC50) on HEK293-hGLP-1R cells with radioligand [Nle^14, [^125I]Tyr(3-I)^40]exendin-4. On the set-up: Dr. Timothy Kieffer (University of British Columbia); host or cells: HEK293. Particulars: w/ BSA (1% BSA); HEK293-hGLP-1R cells, 4 °C, 2 h, 0.41 nM radioligand; read-out: IC50 ± SD. On the procedure: Dr. Timothy Kieffer (University of British Columbia, Vancouver, Canada). Cells were cultivated in high glucose DMEM (25.0 mM D-glucose, 3.97 mM GlutaMAX; REF-number: 61965–026; Fisher Scientific GmbH, Schwerte, Germany) supplemented with 10% fetal bovine serum and 1 mM sodium pyruvate. Medium for stably transfected HEK293-hGLP-1R cells was constantly supplemented with 1 mg/mL Geneticin (G-418 Biochrom, Merck KgaA, Darmstadt, Germany) as selection antibiotic. The cell line was kept at 37 °C in a humidified 5% CO2 atmosphere. One day (24 ± 2 h) prior to all in vitro experiments, the cultivated HEK293-h-GLP-1R cells were harvested using a mixture of trypsin/ethylenediaminetetraacetic acid (0.05%/0.02%) in phosphate-buffered saline (PBS) (Gibco, Germany) and centrifuged at 1300 rpm (ca. 190×g) for 3 min at room temperature (Heraeus Megafuge 16, Thermo Fisher, Germany). After centrifugation, the supernatant was disposed and the cell pellet was resuspended in culture medium. Cells were counted with a Neubauer hemocytometer (Paul Marienfeld GmbH & Co. KG, Lauda-Königshofen, Germany) and seeded in 24-well plates. IC50 values were determined by transferring 1.50 × 10^5 cells/mL per well into 24-well plates.
Detailed information on affinity experiments is provided in the SI. In brief, competitive binding studies were determined on HEK293-hGLP-1R cells (1.50 × 10^5 cells in 1 mL/well) after incubation at 4 °C for 2 hours, using [^125I]Tyr(3-I)^40–3 (0.41 nM/well) as reference radioligand (n = 3).
Dr. Timothy J. Kieffer (University of British Columbia, Vancouver, Canada). Cells were cultivated in high glucose DMEM (25.0 mM D-glucose, 3.97 mM GlutaMAX; REF-number: 61965-026; Fisher Scientific GmbH, Schwerte, Germany) supplemented with 10% fetal bovine serum and 1 mM sodium pyruvate. Medium for stably transfected HEK293-hGLP-1R cells was constantly supplemented with 1 mg/mL Geneticin (G-418 Biochrom, Merck KgaA, Darmstadt, Germany) as selection antibiotic. The cell line was kept at 37 °C in a humidified 5% CO2 atmosphere. One day (24 ± 2 h) prior to all in vitro experiments, the cultivated cells were harvested using a mixture of trypsin/ethylenediaminetetraacetic acid (0.05%/0.02%) in phosphate-buffered saline (PBS) (Merck KgaA, Darmstadt, Germany) and centrifuged at 1300 rpm (ca. 190 × g) for 3 min at room temperature (Heraeus Megafuge 16, Thermo Fisher Scientific, Darmstadt, Germany). After centrifugation, the supernatant was disposed and the cell pellet was resuspended in culture medium. Cells were counted with a Neubauer hemocytometer (Paul Marienfeld GmbH & Co. KG, Lauda-Königshofen, Germany) and seeded in 24-well plates (Greiner Bio-One, Kremsmünster, Austria). IC50 values were determined by transferring 1.50 × 10^5 cells/mL per well into 24-well plates (Greiner Bio-One, Kremsmünster, Austria).
The culture medium was removed and the cells were washed with 500 µL of Hank’s balanced salt solution (HBSS) (Merck KGaA, Darmstadt, Germany), containing 1% bovine serum albumin (BSA) (Merck KGaA, Darmstadt, Germany). Afterwards, 200 µL of HBSS (1% BSA) were added to each well and equilibrated on ice (4 °C) for 15 min. 25 µL/well of either HBSS (1% BSA) (= control) or of solutions, containing the respective unlabeled ligand in increasing concentrations (10^-10 - 10^-4 M in HBSS) were added, followed by the addition of 25 µL of [Nle^14, [^125I]Tyr(3-I)^40]exendin-4 in HBSS (1% BSA) to each well. Experiments were carried out in triplicates for each concentration. The final concentrations of unlabeled ligand ranged from 10^-11 - 10^-5 M and the final radioligand concentration was 0.41 nM in all binding assays. The cells were incubated for two hours at 4 °C. Incubation was terminated by removal of the incubation medium. The cells were washed with 250 µL of HBSS (1% BSA) and the wash medium was combined with the respective supernatant. This fraction represents the amount of free radioligand. The cells were lysed by addition of 250 µL of 1 M aqueous NaOH. […]

T1 sequence (P43220 24-463): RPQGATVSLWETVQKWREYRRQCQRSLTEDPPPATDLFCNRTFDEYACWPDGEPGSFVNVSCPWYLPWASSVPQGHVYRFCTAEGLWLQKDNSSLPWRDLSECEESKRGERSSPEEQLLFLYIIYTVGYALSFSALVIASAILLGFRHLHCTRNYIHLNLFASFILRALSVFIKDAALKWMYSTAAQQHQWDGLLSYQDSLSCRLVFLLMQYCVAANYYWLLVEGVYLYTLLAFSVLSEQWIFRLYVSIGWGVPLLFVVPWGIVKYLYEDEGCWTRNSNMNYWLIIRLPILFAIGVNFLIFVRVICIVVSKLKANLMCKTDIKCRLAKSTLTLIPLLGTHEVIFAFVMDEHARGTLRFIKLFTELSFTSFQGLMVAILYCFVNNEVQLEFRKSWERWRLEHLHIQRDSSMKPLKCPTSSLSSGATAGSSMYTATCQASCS

In the case of `CCc1cc(OC)ccc1-c1ccc(C[C@H](NC(=O)[C@H](CC(=O)O)NC(=O)[C@H](CO)NC(=O)[C@@H](NC(=O)[C@](C)(Cc2ccccc2F)NC(=O)[C@@H](NC(=O)CNC(=O)[C@H](CCC(=O)O)NC(=O)C(C)(C)NC(=O)[C@@H](N)Cc2c[nH]cn2)[C@@H](C)O)[C@@H](C)O)C(=O)N[C@@H](CCc2ccccc2)C(N)=O)cc1` [Peptide 1, H-L-His-Aib-L-Glu-Gly-L-Thr-L-(α-Me)Phe(2-F)-L-Thr-L-Ser-L-Asp-L-(2’-Et, 4’-OMe)BIP-L-homoPhe-NH2, reference compound] (H-H[Aib]EGT[αMePhe(2-F)]TSD[Bip(2'-Et-4'-OMe)][hPhe]-NH2), the concentration giving a half-maximal response (EC50) at human GLP-1 receptor [1] is 0.031 nM. Also, the half-maximal inhibitory concentration (IC50) on human GLP-1 receptor [2] was found to be 669 ± 242 nM.

In general, EC50 refers to the concentration that produces a half-maximal response. The IC50 is the midpoint of a concentration-inhibition curve.
